Among the data in patent US10913738B2 (BRISTOL-MYERS SQUIBB COMPANY, priority 2017, dated 2021) are IC50 values, retold here.

Test [1] has as its system MLKL phosphorylation in HT29-L23 human colorectal adenocarcinoma cells. Description: MLKL Phosphorylation High-Content Assay. The class given is cell-based. The conditions noted are these: Homo sapiens. In a few lines:
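IC50 and Ymax obtained by 4-parameter logistic fitting of MLKL phosphorylation, measured as mean circ-ring average intensity ratio from high-content images. Staining used an anti-phospho-S358 MLKL antibody overnight at 4° C., following six-hour cell incubation at 37° C.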

Test [2] deals with T1, His-GST-TVMV-hRIPK1(1-324) (Homo sapiens, UniProt Q13546).
T1 construct: The coding region of human RIPK1(1-324) flanked by NdeI site at 5′ end; made in house; host or cells: Spodoptera frugiperda (Sf9) insect cells, baculovirus
T1 sequence (Q13546 1-324): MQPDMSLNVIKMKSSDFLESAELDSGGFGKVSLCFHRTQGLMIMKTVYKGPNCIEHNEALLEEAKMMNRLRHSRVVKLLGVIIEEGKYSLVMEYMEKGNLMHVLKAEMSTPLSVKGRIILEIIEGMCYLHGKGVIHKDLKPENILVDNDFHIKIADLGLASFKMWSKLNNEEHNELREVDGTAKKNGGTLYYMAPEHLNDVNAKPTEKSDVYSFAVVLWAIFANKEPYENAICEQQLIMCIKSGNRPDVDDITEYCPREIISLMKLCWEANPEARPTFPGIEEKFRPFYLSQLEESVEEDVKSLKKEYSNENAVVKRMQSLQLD
Description: RIPK1 HTRF Binding Assay. For orientation: Time-resolved FRET reads energy transfer from a long-lived donor to a nearby acceptor.

[3] abbreviates: x marks IC50 class 20-200 nM, read-out: pMLKL cell activity 20-200 nM.
[4] abbreviates: x marks IC50 class <20 nM, read-out: RIPK1 HTRF binding <20 nM.
[5] abbreviates: x marks IC50 class <20 nM, read-out: pMLKL cell activity <20 nM.
[6] abbreviates: x marks IC50 class 20-200 nM, read-out: RIPK1 HTRF binding 20-200 nM.
Setting [7] is: x marks IC50 class >200 nM, read-out: pMLKL cell activity >200 nM.

Like-named read-outs stand apart in the source and are kept apart here.

As for `[2H]C([2H])([2H])[C@H](NC(=O)c1cc(-c2ccn3nc(N)nc3c2)cnc1C)c1cc(C(F)(F)F)ccc1F` [Example 302, (S)-5-(2-amino-[1,2,4]triazolo[1,5-a]pyridin-7-yl)-N-(1-(2-fluoro-5-(trifluoromethyl)phenyl)ethyl-2,2,2-H3)-2-methylnicotinamide], the IC50 was 20 to 200 nM in test [1] (setting [3]) and less than 20 nM in test [2] (setting [4]).

As for `COc1ncc(-c2ccn3nc(N)nc3c2)cc1C(=O)NCc1cc(F)ccc1OC(C)C` [Example 31, 5-{2-Amino-[1,2,4]triazolo[1,5-a]pyridin-7-yl}-N-{[5-fluoro-2-(propan-2-yloxy)phenyl]methyl}-2-methoxypyridine-3-carboxamide], the results for the IC50 in test [1] (setting [3]) and in test [2] (setting [4]) were 20 to 200 nM and less than 20 nM, respectively.

Consider `[2H]C([2H])(NC(=O)c1cc(-c2ccn3nc(N)nc3c2)cnc1OC)c1cc(F)cc(F)c1OCC1CC1` [Example 88, 5-{2-amino-[1,2,4]triazolo[1,5-a]pyridin-7-yl}-N-{[2-(cyclopropylmethoxy)-3,5-difluorophenyl](deutero)methyl}-2-methoxypyridine-3-carboxamide], for which the IC50 in test [1] (setting [5]) and in test [2] (setting [4]) was less than 20 nM each time.

Take `COc1ncc(-c2ccn3nc(N)nc3c2)cc1C(=O)NCc1ccc(F)cc1OC1CCOCC1` [Example 80, 5-{2-Amino-[1,2,4]triazolo[1,5-a]pyridin-7-yl}-N-{[4-fluoro-2-(oxan-4-yloxy)phenyl]methyl}-2-methoxypyridine-3-carboxamide]: the IC50 in test [1] (setting [3]) was 20 to 200 nM; in test [2] (setting [4]), less than 20 nM.

In the case of `Cc1nc(C)c(-c2ccn3nc(N)nc3c2)cc1C(=O)NCc1cccc(OC(F)(F)F)c1` [Example 189, 5-{2-amino-[1,2,4]triazolo[1,5-a]pyridin-7-yl}-2,6-dimethyl-N-{[3-(trifluoromethoxy)phenyl]methyl}pyridine-3-carboxamide], the IC50 in test [1] (setting [3]) and in test [2] (setting [6]) was 20 to 200 nM each time.

With `COc1ncc(-c2ccn3nc(N)nc3c2)cc1C(=O)NCc1ncccc1OC1CCCC1` [Example 141, 5-{2-amino-[1,2,4]triazolo[1,5-a]pyridin-7-yl}-N-{[3-(cyclopentyloxy)pyridin-2-yl]methyl}-2-methoxypyridine-3-carboxamide], the results for the IC50 in test [1] (setting [3]) and in test [2] (setting [4]) were 20 to 200 nM and less than 20 nM, respectively.

Take `COc1ncc(-c2ccn3nc(N)nc3c2)cc1C(=O)NCc1cc(C(F)(F)F)ccc1F` [Example 116, 5-{2-amino-[1,2,4]triazolo[1,5-a]pyridin-7-yl}-N-{[2-fluoro-5-(trifluoromethyl)phenyl]methyl}-2-methoxypyridine-3-carboxamide]: the IC50 in test [1] (setting [3]) and in test [2] (setting [6]) was 20 to 200 nM throughout.

Consider `Cc1nc(C)c(-c2ccn3nc(N)nc3c2)cc1C(=O)NCc1cccc(OCC2CC2)c1` [Example 176, 5-{2-amino-[1,2,4]triazolo[1,5-a]pyridin-7-yl}-N-{[3-(cyclopropylmethoxy)phenyl]methyl]-2,6-dimethylpyridine-3-carboxamide], for which the figures for the IC50 in test [1] (setting [7]) and in test [2] (setting [6]) were more than 200 nM and 20 to 200 nM, respectively.

With `COc1nc(C)c(-c2ccn3nc(N)nc3c2)cc1C(=O)NCc1ccccc1OC(C)C` [Example 212, 5-{2-amino-[1,2,4]triazolo[1,5-a]pyridin-7-yl}-2-methoxy-6-methyl-N-{[2-(propan-2-yloxy)phenyl]methyl}pyridine-3-carboxamide], the IC50 in test [1] (setting [5]) and in test [2] (setting [4]) was less than 20 nM throughout.

In the case of `CCCOc1ncc(-c2ccn3nc(N)nc3c2)cc1C(=O)NCCC(C)c1ccccc1` (centres unmarked) [Example 69, 5-{2-Amino-[1,2,4]triazolo[1,5-a]pyridin-7-yl}-N-(3-phenylbutyl)-2-propoxypyridine-3-carboxamide], the results for the IC50 in test [1] (setting [7]) and in test [2] (setting [4]) were more than 200 nM and less than 20 nM, respectively.

For `COc1nc(C)c(-c2ccn3nc(N)nc3c2)cc1C(=O)NCc1cc(F)cc(F)c1O[C@@H]1CCN(C)C1` [Example 359, (R)-5-(2-amino-[1,2,4]-triazolo[1,5-a]pyridin-7-yl)-N-(3,5-difluoro-2-((1-methylpyrrolidin-3-yl)oxy)benzyl)-2-methoxy-6-methylnicotinamide], the figures for the IC50 in test [1] (setting [7]) and in test [2] (setting [6]) were more than 200 nM and 20 to 200 nM, respectively.

`CCOc1ncc(-c2ccn3nc(N)nc3c2)cc1C(=O)NCc1ccccc1OC1CCCC1` [Example 267, 5-{2-amino-[1,2,4]triazolo[1,5-a]pyridin-7-yl}-N-{[2-(cyclopentyloxy)phenyl]methyl}-2-ethoxypyridine-3-carboxamide]: the results for the IC50 in test [1] (setting [3]) and in test [2] (setting [4]) were 20 to 200 nM and less than 20 nM, respectively.

For `[2H]C([2H])([2H])[C@@H](NC(=O)c1nc(-c2ccn3nc(N)nc3c2)cnc1OC)c1cc(OC(F)(F)F)ccc1F` [Example 383, (R)-6-(2-amino-[1,2,4]triazolo[1,5-a]pyridin-7-yl)-N-(1-(2-fluoro-5-(trifluoromethoxy)phenyl)ethyl-2,2,2-d3)-3-methoxypyrazine-2-carboxamide], the IC50 is more than 200 nM in test [1] (setting [7]) and less than 20 nM in test [2] (setting [4]).

As for `COc1ncc(-c2ccn3nc(N)nc3c2)cc1C(=O)NCc1ccccc1O[C@@H]1C[C@H]2CC[C@@H]1C2` [Example 30, 5-{2-Amino-[1,2,4]triazolo[1,5-a]pyridin-7-yl}-N-({2-[(1R,2R,4S)-bicyclo[2.2.1]heptan-2-yloxy]phenyl}methyl)-2-methoxypyridine-3-carboxamide], the IC50 in test [1] (setting [3]) and in test [2] (setting [6]) was 20 to 200 nM in each case.

`Cc1ncc(-c2ccn3nc(N)nc3c2)cc1C(=O)NCc1ccccc1OC(C)C` [Example 35, 5-{2-Amino-[1,2,4]triazolo[1,5-a]pyridin-7-yl}-2-methyl-N-{[2-(propan-2-yloxy)phenyl]methyl}pyridine-3-carboxamide]: the IC50 in test [1] (setting [3]) and in test [2] (setting [6]) was 20 to 200 nM each time.

Regarding `COc1ncc(-c2ccn3nc(N)nc3c2)cc1C(=O)NCc1cc(F)cc(F)c1OC1CCOC(C)C1` (centres unmarked) [Example 361, 5-(2-amino-[1,2,4]triazolo[1,5-a]pyridin-7-yl)-N-(3,5-difluoro-2-((2-methyltetrahydro-2H-pyran-4-yl)oxy)benzyl)-2-methoxynicotinamide], the IC50 in test [1] (setting [3]) was 20 to 200 nM; in test [2] (setting [4]), less than 20 nM.

As to `COc1ncc(-c2ccn3nc(N)nc3c2)cc1NC(=O)Cc1ccccc1OC(F)(F)F` [Example 417, N-(5-(2-amino-[1,2,4]triazolo[1,5-a]pyridin-7-yl)-2-methoxypyridin-3-yl)-2-(2-(trifluoromethoxy)phenyl)acetamide], the figures for the IC50 in test [1] (setting [7]) and in test [2] (setting [6]) were more than 200 nM and 20 to 200 nM, respectively.

Consider `Cc1ncc(-c2ccn3nc(N)nc3c2)cc1C(=O)NCc1cc(F)ccc1OCC1CCCC1` [Example 20, 5-{2-Amino-[1,2,4]triazolo[1,5-a]pyridin-7-yl}-N-{[2-(cyclopentylmethoxy)-5-fluorophenyl]methyl}-2-methylpyridine-3-carboxamide], for which the IC50 in test [1] (setting [3]) is 20 to 200 nM; in test [2] (setting [4]), less than 20 nM.

As to `Cc1ncc(-c2ccn3nc(N)nc3c2)cc1C(=O)NCc1ccccc1OCC1CCC1` [Example 248, 5-{2-amino-[1,2,4]triazolo[1,5-a]pyridin-7-yl}-N-{[2-(cyclobutylmethoxy)phenyl]methyl}-2-methylpyridine-3-carboxamide], the IC50 in test [1] (setting [5]) and in test [2] (setting [4]) was less than 20 nM in each case.

As to `COc1nnc(-c2ccn3nc(N)nc3c2)cc1C(=O)NCc1cc(OC(F)(F)F)ccc1F` [Example 386, 6-(2-amino-[1,2,4]triazolo[1,5-a]pyridin-7-yl)-N-(2-fluoro-5-(trifluoromethoxy)benzyl)-3-methoxypyridazine-4-carboxamide], the IC50 in test [1] (setting [7]) was more than 200 nM; in test [2] (setting [6]) it was 20 to 200 nM.

In the case of `Cc1ncc(-c2ccn3nc(N)nc3c2)cc1C(=O)NCC[C@H](O)c1ccc(Cl)cc1` [Example 225], the IC50 in test [1] (setting [3]) and in test [2] (setting [6]) was 20 to 200 nM throughout.

With `COc1ncc(-c2ccn3nc(N)nc3c2)cc1C(=O)NCc1cc(F)cc(F)c1O[C@H]1CCOC1` [Example 360, (S)-5-(2-amino-[1,2,4]triazolo[1,5-a]pyridin-7-yl)-N-(3,5-difluoro-2-((tetrahydrofuran-3-yl)oxy)benzyl)-2-methoxynicotinamide], the IC50 is 20 to 200 nM in test [1] (setting [3]) and less than 20 nM in test [2] (setting [4]).

For the molecule `Cc1ncc(-c2ccn3nc(N)nc3c2)cc1C(=O)NCc1c(F)cccc1OCC(F)(F)F` [Example 306, 5-(2-amino-[1,2,4]triazolo[1,5-a]pyridin-7-yl)-N-(2-fluoro-6-(2,2,2-trifluoroethoxy)benzyl)-2-methylnicotinamide], the IC50 in test [1] (setting [3]) and in test [2] (setting [6]) was 20 to 200 nM in each case.

For the molecule `Cc1nc(C)c(-c2ccn3nc(N)nc3c2)cc1C(=O)NCc1cccnc1OCC1CCCC1` [Example 183], the IC50 in test [1] (setting [3]) and in test [2] (setting [6]) was 20 to 200 nM throughout.

Take `[2H]C([2H])([2H])Oc1nc(C)c(-c2ccn3nc(N)nc3c2)cc1C(=O)NC(C)c1ccccc1OC(F)(F)F` (single isomer, unassigned) [Example 98-2, 5-{2-amino-[1,2,4]triazolo[1,5-a]pyridin-7-yl}-2-(deutero)methoxy-6-methyl-N-{1-[2-(trifluoromethoxy)phenyl]ethyl}pyridine-3-carboxamide]: the IC50 in test [1] (setting [5]) and in test [2] (setting [4]) was less than 20 nM each time.
